Holding throughout (experiment): NCI-60 single-dose antiproliferative assay (SRB)
What all share (format): cell-based

Assay [1] has as its system HS 578T. To be noted: Homo sapiens, 10 μM single dose, Breast cancer, read-out: Cell Growth inhibition Percent. In a few lines: (§1)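 The tumour lines, maintained in RPMI 1640 supplemented with 5% fetal bovine serum, received each compound at one concentration (10 µM) for 48 h at 37 °C. Cell mass was quantified by SRB binding (515 nm) and expressed as percentage growth inhibition.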

The test system of assay [2] is OVCAR-5. To be noted: Homo sapiens; 10 μM single dose; OVCAR-5, Ovarian Cancer; read-out: Cell Growth inhibition Percent. In outline: as §1
Assay [3] relates to NCI-H322M. To be noted: Homo sapiens, 10 μM single dose, Non-small cell lung cancer, read-out: Cell Growth inhibition Percent. In a few lines:
as §1

Assay [4] relates to SNB-19. Conditions: Homo sapiens; 10 μM single dose; SNB-19, CNS cancer; read-out: Cell Growth inhibition Percent. In a few lines: as §1
The subject of assay [5] is COLO205. To be noted: Homo sapiens, COLO 205; 10 μM single dose; COLO205, Colon cancer; read-out: Cell Growth inhibition Percent. In outline: as §1
For assay [6], the system named is CCRF-CEM. To be noted: Homo sapiens, 10 μM single dose, Leukemia, read-out: Cell Growth inhibition Percent. In a few lines:
as §1

From PMC10353187, “Discovery of a new potent oxindole multi-kinase inhibitor among a series of designed 3-alkenyl-oxindoles with ancillary carbonic anhydrase inhibitory activity as antiproliferative agents” (BMC Chemistry, 2023) come the findings set out here.

As for `O=C1Nc2ccccc2C1=CNc1ccc(C(=O)O)cc1` [Compound 4c, 4-{[(2-Oxoindolin-3-ylidene)methyl]amino}benzoic acid], the inhibition (usually the change of the read-out against control, counted positive when it falls) at 10 µM turned out to be 0.5% in assay [1] and 0.03% in assay [2].

For `NS(=O)(=O)N/C=C1/C(=O)Nc2ccccc21` [Compound 5, 3-(sulfamidmethylene)indoline-2-one], the inhibition at 10 µM in assay [3] turned out to be 3.18%; in assay [4] it was 0.31%.

Regarding `O=C(Nc1ccc(NC=C2C(=O)Nc3ccccc32)cc1)Nc1nccs1` [Compound 15c, 1-{4-[((2-Oxoindolin-3-ylidene)methyl)amino]phenyl}-3-(thiazol-2-yl)urea], the inhibition at 10 µM in assay [5] stood at 74.2%; in assay [1], 68.5%; in assay [3] it was 47.2%; in assay [2], 39.6%; in assay [4], 69%.

In the case of `O=C1Nc2ccccc2C1=CNc1ccc(CNc2ccc(S(=O)(=O)Nc3ncccn3)cc2)cc1` [Compound 11b, 4-{[4-({[2-Oxoindolin-3-ylidene]methyl}amino)benzyl]amino}-N-(pyrimidin-2-yl)benzenesulfonamide], in assay [6], the inhibition at 10 µM came out at 25.4%.

Turning to `O=C1Nc2ccccc2C1=CNc1ccc(C(=O)C=CNc2nccs2)cc1` [Compound 13c, 3-{[(4-{3-[Thiazol-2-ylamino]acryloyl}phenyl)amino]methylene}indolin-2-one], the values for the inhibition at 10 µM in assay [6] and in assay [5] were 12.1% and 1.8%, respectively.
